Test results taken from patent US20230146455A1, “TREATMENT OF INFLAMMATORY DISEASES WITH PEPTIDES AND PHARMACEUTICAL COMPOSITIONS” (Yuyu Pharma, Inc., priority 2020, published 2023).
Values joined by “and” are separate entries in the source; they are usually repeats but may differ in a detail not shown here. Equal values may be shown once. Where a SMILES comes first, the peptide text is derived from it. [ ]: non-standard residue; d: D form. Hyp = O=C(O)[C@@H]1C[C@@H](O)CN1

Tested on: human PBMCs
Assay: PBMC cell counts (total, live, viability; trypan blue, Countess) with and without LPS and test articles (Example 9)
Format: cell-based
Protocol: Treatment Human PBMCs were pretreated with YY-101, YDE-011 and YDE-043 or reference compound; Xiidra® at various concentration (ranging from 1 nM to 100 uM) for 2 h before stimulation. An equal volume of 0.5% DMSO was used as a vehicle control. Then, the cells were treated with LPS at 5 ug/ml. The supernatants from treated cells were harvested at 24 h and placed in a 96 well for Luminex cytokine & chemokine profiling using a Luminex 200 multiplex assay (Luminex; R&D system, USA).
The main study arm with triplicate wells per group in a 24-well plate: • 1. Blank • 2. PBMC: 0.5% DMSO • 3. PBMC+LPS (5 ug/ml) • 4. PBMC+YY-101 100 uM • 5. PBMC+YY-101 10 uM • 6. PBMC+YY-101 1 uM • 7. PBMC+YY-101 0.1 uM • 8. PBMC+YY-101 0.01 uM • 9. PBMC+LPS (5 ug/ml)+Xiidra®100 uM • 10. PBMC+LPS (5 ug/ml)+Xiidra® 10 uM • 11. PBMC+LPS (5 ug/ml)+Xiidra® 1 uM • 12. PBMC+LPS (5 ug/ml)+Xiidra®0.1 uM • 13. PBMC+LPS (5 ug/ml)+Xiidra®0.01 uM • 14. PBMC+LPS (5 ug/ml)+Xiidra®0.001 uM • 15. PBMC+LPS (5 ug/ml)+YY-101 100 uM • 16. PBMC+LPS (5 ug/ml)+YY-101 10 uM • 17. PBMC+LPS (5 ug/ml)+YY-101 1 uM • 18. PBMC+LPS (5 ug/ml)+YY-101 0.1 uM • 19. PBMC+LPS (5 ug/ml)+YY-101 0.01 uM • 20. PBMC+LPS (5 ug/ml)+YY-101 0.001 uM • 21. PBMC+LPS (5 ug/ml)+YDE-011 100 uM • 22. PBMC+LPS (5 ug/ml)+YDE-011 10 uM • 23. PBMC+LPS (5 ug/ml)+YDE-011 1 uM • 24. PBMC+LPS (5 ug/ml)+YDE-011 0.1 uM • 25. PBMC+LPS (5 ug/ml)+YDE-011 0.01 uM • 26. PBMC+LPS (5 ug/ml)+YDE-011 0.001 uM • 27. PBMC+LPS (5 ug/ml)+YDE-043 100 uM • 28. PBMC+LPS (5 ug/ml)+YDE-043 10 uM • 29. PBMC+LPS (5 ug/ml)+YDE-043 1 uM • 30. PBMC+LPS (5 ug/ml)+YDE-043 0.1 uM • 31. PBMC+LPS (5 ug/ml)+YDE-043 0.01 uM • 32. PBMC+LPS (5 ug/ml)+YDE-043 0.001 uM
The number of PBMCs was measured after 24 hr of treatment. The culture both and trypan blue were diluted 1:1 and 10 ul was added to Countess cell counting chamber (Thermo fisher, USA). The number of PBMCs was measured using a Countess automated cell counter (Thermo fisher, USA).

[1] = PBMC + LPS(5 ug/ml) + compound 0.001 uM, 24 hr
[2] = PBMC + LPS(5 ug/ml) + compound 0.01 uM, 24 hr
[3] = PBMC + LPS(5 ug/ml) + compound 0.1 uM, 24 hr
[4] = PBMC + LPS(5 ug/ml) + compound 1 uM, 24 hr
[5] = PBMC + LPS(5 ug/ml) + compound 10 uM, 24 hr
[6] = PBMC + LPS(5 ug/ml) + compound 100 uM, 24 hr
[7] = PBMC + LPS(5 ug/ml) + test article 0.001 uM, Mean
[8] = PBMC + LPS(5 ug/ml) + test article 0.001 uM, single replicates
[9] = PBMC + LPS(5 ug/ml) + test article 0.01 uM, Mean
[10] = PBMC + LPS(5 ug/ml) + test article 0.01 uM, single replicates
[11] = PBMC + LPS(5 ug/ml) + test article 0.1 uM, Mean
[12] = PBMC + LPS(5 ug/ml) + test article 0.1 uM, single replicates
[13] = PBMC + LPS(5 ug/ml) + test article 1 uM, Mean
[14] = PBMC + LPS(5 ug/ml) + test article 1 uM, single replicates
[15] = PBMC + LPS(5 ug/ml) + test article 10 uM, Mean
[16] = PBMC + LPS(5 ug/ml) + test article 10 uM, single replicates

CC(C)C[C@H](NC(=O)CNC(=O)[C@H](CC(C)C)NC(=O)[C@H](CCC(N)=O)NC(=O)CNC(=O)[C@@H]1C[C@@H](O)CN1)C(=O)N[C@@H](C)C(=O)NCC(=O)N1CCC[C@H]1C(=O)N[C@@H](CCCCN)C(=O)O [YDE-011] (H-[Hyp]GQLGLAGPK-OH)
Live cell [1]: 5.4 ± 0.4 10^5/ml | Total cell [1]: 6.3 ± 0.2 10^5/ml | Live cell [2]: 5.9 ± 0.4 10^5/ml | Total cell [2]: 7.3 ± 0.4 10^5/ml | Live cell [3]: 5.8 ± 0.5 10^5/ml | Total cell [3]: 7.1 ± 0.7 10^5/ml | Live cell [4]: 5.0 ± 0.2 10^5/ml | Total cell [4]: 6.4 ± 0.3 10^5/ml | Live cell [5]: 5.3 ± 0.3 10^5/ml | Total cell [5]: 6.0 ± 0.4 10^5/ml | Live cell [6]: 6.1 ± 0.0 10^5/ml | Total cell [6]: 8.2 ± 0.4 10^5/ml | Live cell [7]: 5.4 10^5/ml | Live cell (10^5/ml) [7]: 5.4 10^5/ml | Live cell, Mean [7]: 5.4 10^5/ml | Live cell (PBMC + LPS(5 ug/ml) + test article 0.001 uM, individual replicates): 4.5 10^5/ml and 5.8 10^5/ml (2×) | Live cell (PBMC + LPS(5 ug/ml) + test article 0.001 uM, individual replicates (1st, 2nd, 3rd)): 4.5 10^5/ml and 5.8 10^5/ml (2×) | Live cell [8]: 4.5 10^5/ml and 5.8 10^5/ml (2×) | Live cell (10^5/ml) [8]: 4.5 10^5/ml and 5.8 10^5/ml (2×) | Live cell (PBMC + LPS(5 ug/ml) + test article 0.001 uM, single replicates (1st, 2nd, 3rd)): 4.5 10^5/ml and 5.8 10^5/ml (2×) | Live cell [9]: 5.9 10^5/ml | Live cell (10^5/ml) [9]: 5.9 10^5/ml | Live cell, Mean [9]: 5.9 10^5/ml | Live cell (PBMC + LPS(5 ug/ml) + test article 0.01 uM, individual replicates): 6.2 10^5/ml and 5.1 10^5/ml and 6.3 10^5/ml | Live cell (PBMC + LPS(5 ug/ml) + test article 0.01 uM, individual replicates (1st, 2nd, 3rd)): 6.2 10^5/ml and 5.1 10^5/ml and 6.3 10^5/ml | Live cell [10]: 6.3 10^5/ml and 6.2 10^5/ml and 5.1 10^5/ml | Live cell (10^5/ml) [10]: 6.3 10^5/ml and 6.2 10^5/ml and 5.1 10^5/ml | Live cell (PBMC + LPS(5 ug/ml) + test article 0.01 uM, single replicates (1st, 2nd, 3rd)): 6.2 10^5/ml and 5.1 10^5/ml and 6.3 10^5/ml | Live cell [11]: 5.8 10^5/ml | Live cell (10^5/ml) [11]: 5.8 10^5/ml | Live cell, Mean [11]: 5.8 10^5/ml | Live cell (PBMC + LPS(5 ug/ml) + test article 0.1 uM, individual replicates): 6.6 10^5/ml and 5.0 10^5/ml and 5.7 10^5/ml | Live cell (PBMC + LPS(5 ug/ml) + test article 0.1 uM, individual replicates (1st, 2nd, 3rd)): 6.6 10^5/ml and 5.0 10^5/ml and 5.7 10^5/ml | Live cell [12]: 6.6 10^5/ml and 5.0 10^5/ml and 5.7 10^5/ml | Live cell (10^5/ml) [12]: 6.6 10^5/ml and 5.0 10^5/ml and 5.7 10^5/ml | Live cell (PBMC + LPS(5 ug/ml) + test article 0.1 uM, single replicates (1st, 2nd, 3rd)): 6.6 10^5/ml and 5.0 10^5/ml and 5.7 10^5/ml | Live cell [13]: 5.0 10^5/ml | Live cell (10^5/ml) [13]: 5.0 10^5/ml | Live cell, Mean [13]: 5.0 10^5/ml | Live cell (PBMC + LPS(5 ug/ml) + test article 1 uM, individual replicates): 5.5 10^5/ml and 4.8 10^5/ml (2×) | Live cell (PBMC + LPS(5 ug/ml) + test article 1 uM, individual replicates (1st, 2nd, 3rd)): 5.5 10^5/ml and 4.8 10^5/ml (2×) | Live cell [14]: 5.5 10^5/ml and 4.8 10^5/ml (2×) | Live cell (10^5/ml) [14]: 5.5 10^5/ml and 4.8 10^5/ml (2×) | Live cell (PBMC + LPS(5 ug/ml) + test article 1 uM, single replicates (1st, 2nd, 3rd)): 5.5 10^5/ml and 4.8 10^5/ml (2×) | Live cell [15]: 5.3 10^5/ml | Live cell (10^5/ml) [15]: 5.3 10^5/ml | Live cell, Mean [15]: 5.3 10^5/ml | Live cell (PBMC + LPS(5 ug/ml) + test article 10 uM, individual replicates): 5.4 10^5/ml and 5.8 10^5/ml and 4.7 10^5/ml | Live cell (PBMC + LPS(5 ug/ml) + test article 10 uM, individual replicates (1st, 2nd, 3rd)): 5.4 10^5/ml and 5.8 10^5/ml and 4.7 10^5/ml | Live cell [16]: 5.4 10^5/ml and 5.8 10^5/ml and 4.7 10^5/ml | Live cell (10^5/ml) [16]: 5.4 10^5/ml and 5.8 10^5/ml and 4.7 10^5/ml
